Experimental data reported in EPA's ToxRefDB 2.

Key:
[1] = tested on: mouse; conditions: Multigenerational reproductive toxicity study, Other, Oral, Feed, dose end: 90 day
[2] = tested on: rat; conditions: Combined chronic toxicity/carcinogenicity, fischer, Oral, Feed, dose end: 2 year, group: systemic
[3] = tested on: mouse; conditions: Subchronic oral toxicity in rodents, BALB/c, Water, dose end: 141 day, group: systemic, systemic / pathology microscopic / liver / hemangioma + systemic / pathology microscopic / liver / hemangiosarcoma + systemic / pathology …
[4] = tested on: mouse; conditions: Reproduction/developmental toxicity screening test, other, Injection, Subcutaneous, dose end: 1 PND
[5] = tested on: mouse; conditions: Carcinogenicity; other; Oral; Water; dose end: 18 week; group: systemic; systemic / pathology microscopic / lung / mixed tumor nos
[6] = tested on: dog; conditions: Subchronic oral toxicity in nonrodent, beagle, Feed, dose end: 13 week, group: systemic, systemic / clinical chemistry / alkaline phosphatase (alp/alk) / alkaline phosphatase (alp/alk) + systemic / clinical chemistry / gamma …
[7] = tested on: rat; conditions: Sub-acute repeat dose toxicity; wistar; Oral; Feed; dose end: 4 week; group: systemic; systemic / clinical chemistry / lactic acid dehydrogenase (ldh) / lactic acid dehydrogenase (ldh) + systemic / organ weight / liver / …
[8] = tested on: rat; conditions: Prenatal developmental toxicity study, wistar, Oral, Gavage/Intubation, dose end: 15 GD
[9] = tested on: rat; conditions: Sub-acute repeat dose toxicity, wistar, Oral, Feed, dose end: 4 week, group: systemic
[10] = tested on: rabbit; conditions: Sub-acute dermal toxicity, new zealand white, Topical, dose end: 21 day, group: systemic, systemic / in life observation / clinical signs / desquamation + systemic / in life observation / clinical signs / erythema + systemic / …
[11] = tested on: rat; conditions: Subchronic oral toxicity in rodents, wistar, Feed, dose end: 13 week, group: systemic
[12] = tested on: rat; conditions: Subchronic oral toxicity in rodents, wistar, Feed, dose end: 13 week, group: systemic; remark: listed apart in the source
[13] = tested on: rat; conditions: Subchronic oral toxicity in rodents, wistar, Feed, dose end: 13 week, group: systemic, systemic / clinical chemistry / calcium / calcium + systemic / clinical chemistry / creatinine / creatinine + systemic / clinical chemistry…
[14] = tested on: mouse; conditions: Subchronic oral toxicity in rodents, cd1, Feed, dose end: 13 week, group: systemic, systemic / in life observation / body weight / body weight gain + systemic / organ weight / liver / absolute + systemic / organ weight / …
[15] = tested on: mouse; conditions: Carcinogenicity; cd1; Oral; Feed; dose end: 88 week; group: systemic; systemic / pathology microscopic / liver / hypertrophy + systemic / pathology microscopic / liver / inflammation + systemic / pathology …
[16] = tested on: dog; conditions: Chronic toxicity; beagle; Oral; Feed; dose end: 52 week; group: systemic; systemic / clinical chemistry / cytochrome p450, nos / cytochrome p450, nos + systemic / clinical chemistry / glutathione-s-transferase / …
[17] = tested on: rabbit; conditions: Prenatal developmental toxicity study, new zealand white, Oral, Gavage/Intubation, dose end: 18 GD
[18] = tested on: rat; conditions: Sub-acute dermal toxicity, wistar, Topical, dose end: 28 day, group: systemic, systemic / clinical chemistry / cholesterol / cholesterol + systemic / clinical chemistry / globulins / globulins + systemic / clinical …
[19] = tested on: rabbit; conditions: Prenatal developmental toxicity study, new zealand white, Oral, Gavage/Intubation, dose end: 18 GD; remark: listed apart in the source
[20] = group: parental, systemic / in life observation / mortality / mortality
[21] = group: reproductive, reproductive / reproductive performance / fertility / fertility + reproductive / reproductive performance / mating / mating + reproductive…
[22] = systemic / pathology microscopic / kidney / nephropathy + systemic / pathology microscopic / liver / cytomegaly + systemic / pathology …
[23] = systemic / pathology microscopic / liver / cytomegaly + systemic / in life observation / food consumption / food consumption
[24] = group: developmental, developmental / offspring survival late / [other] / [other]
[25] = group: maternal, reproductive / offspring survival early / dead fetuses / dead fetuses
[26] = group: offspring, systemic / pathology microscopic / liver / [other] + systemic / pathology gross / full gross necropsy / hemangiosarcoma
[27] = group: offspring, systemic / pathology microscopic / liver / [other] + systemic / pathology microscopic / liver / hemangioma + systemic / pathology …
[28] = group: developmental, developmental / developmental malformation / bone / full supernumerary
[29] = group: developmental, developmental / developmental malformation / bone / full supernumerary + developmental / developmental malformation / bone / incomplete …
[30] = group: maternal, systemic / in life observation / body weight / body weight gain
[31] = group: maternal, systemic / in life observation / body weight / body weight gain + reproductive / reproductive performance / postimplantation loss / …
[32] = systemic / pathology microscopic / liver / lipid deposition + systemic / pathology microscopic / liver / vacuolization
[33] = systemic / pathology microscopic / liver / lipid deposition + systemic / pathology microscopic / liver / vacuolization + systemic / clinical…
[34] = systemic / pathology microscopic / thyroid gland / hypertrophy
[35] = systemic / in life observation / body weight / body weight gain + systemic / clinical chemistry / alanine aminotransferase (alt/sgpt) / …
[36] = group: developmental, systemic / in life observation / body weight / fetal weight + developmental / developmental malformation / bone / [other] + developmental / …
[37] = group: maternal, reproductive / reproductive performance / postimplantation loss / postimplantation loss + systemic / in life observation / body weight / …
[38] = group: developmental, developmental / developmental malformation / general / [other] + developmental / developmental malformation / limb / malrotated
[39] = group: maternal, systemic / in life observation / body weight / body weight gain + systemic / in life observation / food consumption / food consumption

ClC1(Cl)C2(Cl)C3(Cl)C4(Cl)C(Cl)(Cl)C5(Cl)C3(Cl)C1(Cl)C5(Cl)C24Cl (stereo not given) [Mirex]
LEL [1, 20]: 0.25 mg/kg/day | LOAEL [1, 20]: > 0.25 mg/kg/day | NEL [1, 20]: < 0.25 mg/kg/day | NOAEL [1, 20]: ≥ 0.25 mg/kg/day | LEL [1, 21]: 0.25 mg/kg/day | LOAEL [1, 21]: > 0.25 mg/kg/day | NEL [1, 21]: < 0.25 mg/kg/day | NOAEL [1, 21]: ≥ 0.25 mg/kg/day | LOAEL [2, 22]: 1.95 mg/kg/day | NOAEL [2, 22]: 0.75 mg/kg/day | LEL [2, 23]: 0.007 mg/kg/day | NEL [2, 23]: < 0.007 mg/kg/day

CN(C)N=O [N-Nitrosodimethylamine]
LEL [3]: 1.33 mg/kg/day | LOAEL [3]: > 1.33 mg/kg/day | NEL [3]: < 1.33 mg/kg/day | NOAEL [3]: ≥ 1.33 mg/kg/day | LEL [4, 24]: 1 mg/kg/day | LOAEL [4, 24]: > 50 mg/kg/day | NEL [4, 24]: < 1 mg/kg/day | NOAEL [4, 24]: ≥ 50 mg/kg/day | LEL [4, 25]: 20 mg/kg/day | LOAEL [4, 25]: > 50 mg/kg/day | NEL [4, 25]: 10 mg/kg/day | NOAEL [4, 25]: ≥ 50 mg/kg/day | LEL [4, 26]: 1 mg/kg/day | NEL [4, 26]: < 1 mg/kg/day | LOAEL [4, 27]: > 50 mg/kg/day | NOAEL [4, 27]: ≥ 50 mg/kg/day | LEL [5]: 0.0667 mg/kg/day | LOAEL [5]: > 0.0667 mg/kg/day | NEL [5]: < 0.0667 mg/kg/day | NOAEL [5]: ≥ 0.0667 mg/kg/day

CC(C1CC1)C(O)(Cn1cncn1)c1ccc(Cl)cc1 (stereo not given) [Cyproconazole]
LEL [6]: 20 mg/kg/day | LOAEL [6]: 20 mg/kg/day | NEL [6]: 4 mg/kg/day | NOAEL [6]: 4 mg/kg/day | LEL [7]: 25.3 mg/kg/day | LOAEL [7]: 25.3 mg/kg/day | NEL [7]: 8.14 mg/kg/day | NOAEL [7]: 8.14 mg/kg/day | LEL [8, 28]: 12 mg/kg/day | LOAEL [8, 28]: 12 mg/kg/day | NEL [8, 29]: 6 mg/kg/day | NOAEL [8, 29]: 6 mg/kg/day | LEL [8, 30]: 12 mg/kg/day | LOAEL [8, 30]: 12 mg/kg/day | NEL [8, 31]: 6 mg/kg/day | NOAEL [8, 31]: 6 mg/kg/day | LEL [9, 32]: 527 mg/kg/day | LOAEL [9, 32]: 527 mg/kg/day | NEL [9, 33]: 155 mg/kg/day | NOAEL [9, 33]: 155 mg/kg/day | LEL [10]: 1000 mg/kg/day | LOAEL [10]: 1000 mg/kg/day | NEL [10]: 300 mg/kg/day | NOAEL [10]: 300 mg/kg/day | LOAEL ([11]; systemic / organ weight / liver / absolute + systemic / organ weight / liver / relative to body weight + systemic / pathology microscopic / …): 24.7 mg/kg/day | LEL [11, 34]: 1.4 mg/kg/day | NEL [11, 34]: < 1.4 mg/kg/day | NOAEL ([11]; systemic / pathology microscopic / thyroid gland / hypertrophy + systemic / organ weight / liver / absolute + systemic / organ weight / …): 1.4 mg/kg/day | LOAEL ([12]; systemic / in life observation / body weight / body weight gain): 27.3 mg/kg/day | NEL [12, 35]: 1.5 mg/kg/day | NOAEL [12, 35]: 1.5 mg/kg/day | LEL ([12]; systemic / in life observation / body weight / body weight gain + systemic / in life observation / food consumption / food efficiency + …): 27.3 mg/kg/day | LEL [13]: 1.5 mg/kg/day | LOAEL [13]: > 21.4 mg/kg/day | NEL [13]: < 1.5 mg/kg/day | NOAEL [13]: ≥ 21.4 mg/kg/day | LEL [14]: 43.8 mg/kg/day | LOAEL [14]: 43.8 mg/kg/day | NEL [14]: 2.2 mg/kg/day | NOAEL [14]: 2.2 mg/kg/day | LEL [15]: 13.2 mg/kg/day | LOAEL [15]: 13.2 mg/kg/day | NEL [15]: 1.84 mg/kg/day | NOAEL [15]: 1.84 mg/kg/day | LEL [16]: 3.2 mg/kg/day | LOAEL [16]: 3.2 mg/kg/day | NEL [16]: 1 mg/kg/day | NOAEL [16]: 1 mg/kg/day | LOAEL ([17]; group: developmental, systemic / in life observation / body weight / fetal weight): 60 mg/kg/day | LEL [17, 36]: 60 mg/kg/day | NEL [17, 36]: 10 mg/kg/day | NOAEL [17, 36]: 10 mg/kg/day | LEL [17, 37]: 60 mg/kg/day | LOAEL [17, 37]: 60 mg/kg/day | NEL [17, 37]: 10 mg/kg/day | NOAEL [17, 37]: 10 mg/kg/day | LEL [18]: 100 mg/kg/day | LOAEL [18]: 100 mg/kg/day | NEL [18]: 10 mg/kg/day | NOAEL [18]: 10 mg/kg/day | LOAEL ([19]; group: developmental, developmental / developmental malformation / general / [other]): 10 mg/kg/day | LEL [19, 38]: 10 mg/kg/day | NEL [19, 38]: 2 mg/kg/day | NOAEL [19, 38]: 2 mg/kg/day | LOAEL [19, 30]: 50 mg/kg/day | LEL [19, 39]: 50 mg/kg/day | NEL [19, 39]: 10 mg/kg/day | NOAEL [19, 39]: 10 mg/kg/day
